| melting point [°C] | Structure (SMILES) |
| --- | --- |
| 234 to 235 | N#Cc1ccc2oc(CCc3ccc(C(=O)O)cc3)cc2c1 |
| 83 | CCCCCCCCC#CCC#CCC#CCS(=O)(=O)CC(=O)NCC |
| 90 to 92.5 | Cc1ccccc1C(=O)c1ccc(CC#N)n1C |
| 131 to 132 | O=C(O)CCCNC(=O)S[C@@H]1CC(=O)N(Cc2ccc(Oc3ccc(F)cc3)nc2)C1 |
| 223 to 225 | CC(Nc1ccccc1N)=C1C(=O)OC(=O)C(C(=O)C=Cc2ccc(O)cc2)=C1O |
| 161 to 163 | CS(=O)(=O)c1ccc(-c2cnn(-c3ccc(F)c(F)c3)c(=O)c2Cc2cccc(F)c2)cc1 |
| 186 to 187 | Cc1cc(C)c2c(O)c([N+](=O)[O-])c(=O)oc2c1 |
| 109 to 112 | Cc1ccc(OC2CCN(C(=O)C(=O)Nc3ccc4c(c3)CC(=O)N4)CC2)cc1 |
| 84 to 86 | CC(=O)Oc1ccc(C2=CC(C)(C)c3ccccc3O2)cc1 |
| 37 to 39 | Nc1cccc2c1CC=CC2 |
| 100 to 104 | CC1CC=C(c2ccc(C(C)C(=O)O)cc2)CC1 (stereo not given) |
| 132 to 133 | Cc1csc(=Nc2ccc(C(C)C(=O)O)c(Cl)c2)n1C (stereo not given) |
| 134 | COC(=O)c1cc2c3ccccc3n(C)c2s1 |
| 373 | O=C1c2nccnc2C(=O)N1c1ccc2ccc(O)nc2n1 |
| 94 | CSc1nc(SC)nc(-c2cc(C(C)(C)C)c(O)c(C(C)(C)C)c2)n1 |
| 112 to 114 | FC(F)(F)C(c1cc(-c2ccccc2)c(-c2ccccc2)[nH]1)C(F)(F)F |
| 158 to 160 | NC1CCNC(c2cnccn2)C1 (stereo not given) |
| 130 to 132 | CCC(C)CNC(=O)c1cc(NC(=O)OCc2ccccc2)cc(C(=O)NCC(C)CC)c1 (stereo not given) |
| 178 to 182 | COc1cc(C(=O)OCCN(CCOC(=O)c2cc(OC)c(OC)c(OC)c2)CCS(=O)(=O)O)cc(OC)c1OC |
| 196 to 197 | Nc1ccc(OC(F)(F)F)c(C(=O)O)c1 |
| 148 to 150 | O=C1C=C(c2ccccc2)SCCN1 |
| 86 to 88 | CC1(C)CON(Cc2c(Cl)cccc2[N+](=O)[O-])C1=O |
| 191 | COc1cc2c(cc1[N+](=O)[O-])NC(=O)CN(C(=O)OCc1ccccc1)C2 |
| 152 to 153 | O=S(=O)(c1ccc(C(CC2CCOCC2)c2ccc(-c3ccc(Cn4cncn4)cn3)[nH]2)cc1)C1CC1 (stereo not given) |

| melting point [°C] | Structure (SMILES) |
| --- | --- |
| 213 to 215 | CNC(=O)c1ccc(-c2ccc3nnn(Cc4c(F)ccc(F)c4Cl)c3n2)cc1F |
| 153 to 154 | NS(=O)(=O)c1cc(Br)ccc1F |
| 104 to 107 | CCCn1c(CO)nc(C(C)C)c1Sc1cc(Cl)cc(Cl)c1 |
| 107 to 109 | CC(=O)OCCCc1c2ccccc2cc2ccccc12 |
| 208 to 210 | Cc1nc[nH]c1CSCCNc1cc(=O)cc[nH]1 |
| 233 to 234 | O=C1Nc2ccccc2Nc2cscc21 |
| 195 to 196 | CCCCS(=O)(=O)NC1Cc2ccc(-c3ccc(=O)[nH]n3)cc2C1 (stereo not given) |
| 137 to 138 | Cc1cc(N(C)Cc2ccc(-c3ccc(C(F)(F)F)cc3)nc2C)cc(C)c1OCC(=O)O |
| 56 to 66 | COc1ccc(S(=O)(=O)NCC(O)(Cn2cncn2)c2ccc(Cl)cc2Cl)cc1 (stereo not given) |
| 254 to 257 | CC(C)(C)c1ccc(-c2nc(N)sc2-c2ccncc2)cc1 |
| 141 to 142 | CCOC(=O)c1nc2scc(C)n2c1C |
| 76 to 79 | CCCc1c(OCCCOc2ccc3c(c2CCC)OC(CCC(=O)O)(C(=O)O)CC3=O)ccc(C(C)=O)c1O (stereo not given) |
| 106 to 107 | CC(C)(C)OC(=O)NCCOc1noc2ccccc12 |
| 203 to 205 | CN(CCc1ccccc1)C(=O)Cn1cc(C=Cc2nnn[nH]2)c2cc(OCc3ccccc3)ccc21 |
| 36 to 38 | CC(C)C[C@H](NC(=O)c1cnccn1)C(=O)O |
| 65 to 67 | COc1cc(N2CCC(N3CCNCC3)CC2)ccc1Nc1ncc2ccc(-c3ccccc3OC)n2n1 |
| 222 to 223 | CC(C)c1cc(C(=O)Nc2ccc(C(=O)O)c(Cl)c2)sc1C(C)C |
| 218 | Cc1ccc(C2(O)CCN(CCCN3c4cccc5cccc(c45)S3(=O)=O)CC2)cc1 |
| 224 to 225 | CC(=O)N1CCN(Cc2cnc(-c3cc4c(Cl)ccc(N(C)S(=O)(=O)c5cccs5)c4[nH]3)s2)CC1 |
| 69 to 70 | CC(C)(C)OC(=O)NC12CCC1CN(Cc1ccccc1)C2 (stereo not given) |
| 217 to 218 | Cc1cccc(C(N)=O)c1NS(=O)(=O)c1nc2scc(C)n2n1 |
| 128 | CCOC(=O)Oc1c(OC)cc(Cl)c2c1CN1CCc3cc(OC)c(OCc4ccccc4)cc3C1C2 (stereo not given) |
| 147 to 149 | NS(=O)(=O)OCCOc1cccc(OCCOS(N)(=O)=O)c1 |
| 69 to 71 | BrCc1noc2cc3c(cc12)CCC3 |

| melting point [°C] | Structure (SMILES) |
| --- | --- |
| 179 to 181 | O=C(O)C(CCCN1C(=O)c2ccccc2C1=O)NS(=O)(=O)c1ccc(-c2ccc(Cl)cc2)cc1 (stereo not given) |
| 195 to 201 | COc1cc(/C=C/C(=O)Nc2ccccc2C(=O)O)ccc1OCCN1CCOCC1 |
| 112 to 113 | CCOC(=O)c1ncsc1-c1cc(F)cc(F)c1 |
| 230 to 232 | NC(=O)c1nc(-c2cncc(Cl)c2)nc2c1[nH]c(=O)n2-c1ccccc1C(F)(F)F |
| 208 to 210 | N=C(N)Nc1nc(CCCCNc2c(NCCSCc3csc(NC(=N)N)n3)c(=O)c2=O)cs1 |
| 185 to 189 | CCC(C(CC(=O)OC)c1ccc2c(c1)OCO2)[N+](=O)[O-] (stereo not given) |
| 208 to 210 | Cc1ccccc1N1CCN(Cc2ccc(Nc3ccnc4cc(C(F)(F)F)ccc34)cc2)CC1 |
| 125 to 126 | CCOC(=O)C(=NOC1CCCCC1)c1csc(N)n1 |
| 153 to 155 | CN(C(=O)NCC(=O)O)[C@H]1O[C@H](c2ccccc2Cl)c2cc(Cl)ccc2N(Cc2ccccc2)C1=O (relative stereo) |
| 210 to 213 | CCc1c(-c2ccc(OCc3ccccc3)cc2)c2cc(C(=O)OC)c3c(NC(C)=O)ccc1n23 |
| > 40 | CCOC(=O)c1c(N2CCC(N(C)C)C2)c2cc(C)ccc2n(Cc2ccccc2)c1=O (stereo not given) |
| 175 to 177 | CC(=O)Oc1ccccc1C(=O)N1CCN(C(=O)c2ccccc2OC(C)=O)CC1 |
| 230 to 232 | FC(F)(F)c1ccc2c(Nc3ccccc3)ncnc2c1 |
| 142 | C#CCOc1ccc(C(=O)OC)c(O)c1 |
| 42 to 44 | CN(CCC(Oc1ccc(C(F)(F)F)cc1)c1ccccc1)Cc1ccccc1 (stereo not given) |
| 48 to 50 | CC(C)(C)OC(=O)N1CCC[C@H]1COc1cccc2c1ccn2S(=O)(=O)c1ccccc1 |
| 128 to 130 | COC(=O)c1cc(Cl)cc2c1OC(C)C(=O)N2C (stereo not given) |
| 188 to 190 | CCCSC(Cn1ccnc1)(SCCC)c1ccc2ccccc2c1 |
| 97 to 100 | Cc1c(O)c(O)cc2ccccc12 |
| > 300 | Cn1c(=O)c2[nH]c(C=Cc3cccc([N+](=O)[O-])c3)nc2n(C)c1=O |
| 84 | CCC(=O)NC1C=CCCCC1 (stereo not given) |
| > 300 | Cc1nc2sc3c(c2c2[nH][nH]c(=O)c12)CCN(C(=O)OC(C)(C)C)C3 |
| 297 to 299 | N#CC(C#N)=C1Sc2nc3cc(Cl)c([N+](=O)[O-])cc3nc2S1 |
| 109 | Cc1cc(SCc2sc(-c3ccc(Cl)cc3)nc2C)ccc1OCC(=O)O |

| melting point [°C] | Structure (SMILES) |
| --- | --- |
| 159 to 161 | N=C(NCc1ccncc1)NN=Cc1c(Cl)cccc1Cl |
| 32 to 35 | Cc1cc(COc2ccc(Cl)cc2CN)on1 |
| 175 | CCC1=C(C)CN(C(=O)NCC2CCOc3cc(O)c(S(N)(=O)=O)cc32)C1=O (stereo not given) |
| 72 to 73 | CCOC(=O)c1csc(-c2cccs2)n1 |
| 176 to 178 | Cn1cc(C#N)c(-c2ccc([N+](=O)[O-])o2)n1 |
| 150 | COc1cc(-c2cc3ccccc3[nH]2)cc(OC)c1OS(=O)(=O)c1ccccc1 |
| 188 to 189 | CCC1NC(c2cc(Cl)nc(Cl)c2)=NC(=O)C1C(=O)OC (stereo not given) |
| 159 | CCCCCCCCCCCCCCCCCCC1(CO)OC(n2cccnc2=O)C(O)C1O (stereo not given) |
| 158 to 159 | O=C(c1ccc(F)cc1)C1CCN(C(=O)Cc2ccc(OCc3ccccc3)cc2OCc2ccccc2)CC1 |
| 167 to 168 | C=CCOCC1CC(N)c2cc(S(N)(=O)=O)sc2S1(=O)=O (stereo not given) |
| 271 to 277 | O=C(O)c1cc2ccccc2nc1C(=O)O |
| 82 to 95 | CCCCCCCCCCCCCCCCCCOc1ccc(C(=O)C(Sc2nnnn2-c2ccccc2)c2ccc([N+](=O)[O-])cc2)cc1 (stereo not given) |
| 43 to 45 | C#CCCCCCCOC(c1ccccc1)(c1ccccc1)c1ccccc1 |
| 205 to 206 | Cn1nc(Br)c2c(=O)n3c(nc21)SCC3 |
| 206 to 208 | CSc1ccccc1-n1ncc(-c2ccc(S(C)(=O)=O)cc2)c(-c2ccc(F)cc2)c1=O |
| 126 to 127 | O=C1OC(=O)c2nc(C(Cl)(Cl)Cl)ccc21 |
| 75 to 78 | O=Cn1cc(Cl)c(-c2ccccc2C(F)(F)F)c1 |
| 107 to 108 | Cc1cc(SC(=O)N(C)C)c(C(C)(C)C)cc1C=O |
| 115 to 120 | CC(C)(C)OC(=O)N(CCO)C1CCN(c2ccc3c(NC(=O)CC4CCCCC4)c(Cl)ccc3n2)C1 (stereo not given) |
| 167 | COc1ccc(S(N)(=O)=O)cc1C(=O)NCC1CCCN1CC1=CCCCC1 (stereo not given) |
| 125 to 127 | CNC(=O)Nc1cccc(C2=NC(C)(C)Cc3cc(OC)c4c(c32)CC(C)(C)O4)c1 |
| 143 to 146 | CCN(CC)C(=O)C(c1ccccc1)n1cnc2[nH]ncc2c1=S (stereo not given) |
| 126 to 127 | N#Cc1c(C(F)(F)F)nn(-c2c(Cl)cc(C(F)(F)F)cc2Cl)c1N(C(=O)C1CC1)C(=O)C1CC1 |
| 73 to 74 | COC(=O)c1sc2ccccc2c1N=CN(C)C |

| Structure (SMILES) | melting point [°C] |
| --- | --- |
| Cn1cc(C2=C(c3c4n(c5ccccc35)CCCC(CNC(N)=N[N+](=O)[O-])C4)C(=O)NC2=O)c2ccccc21 (stereo not given) | 177 to 178 |
| Cc1ccc2c(c1)c(O)c(C(=O)NC1CCCCC1)c(=O)n2Cc1ccccc1 | 87 |
| NCCCP(=O)(O)C1SCCS1 | 272 to 274 |
| CC1(C)C(C(=O)Nc2ccccc2)C1(C)C | 149 |
